Experimental data: US20210363254A1, “PHARMACEUTICAL COMBINATIONS” (Novartis AG, priority 2018, published 2021)

Test system: Colon 26 tumors
Test: Anti-tumor activity in Colon 26 syngeneic tumor model (8020 Colon 26-XEF)
Type: in vivo, mouse
Experimental: (§1) Time to endpoint. Balb/c mice were implanted with 2×10^5 Colon 26 cells subcutaneously. Mice were treated with HDM201 at 40 mg/kg×3 for every 3h po on Days 12, 19 and 26 post cell implant, and the aPD-1 antibody at 5 mg/kg ip on days 12, 15, 19, and 22. End point was defined as tumor volume equal or greater than 1000 mm^3. Log Rank, p<0.05.
as §1, with “FIG. 25: Individual Tumor Growth Curves (8020 Colon 26-XEF) Individual tumor growth curves.” for “Time to endpoint.”, “equal to” for “equal”, “The horizontal dashed line indicates the tumor endpoint tumor size (1000 mm^3).” for “Log Rank, p<0.05.”
Colon 26 cells were harvested at 80-95% confluence, washed, and re-suspended in cold PBS at a concentration of 2×10^6 cells/ml. Finally, 0.2×10^6 cells in a total volume of 100 μL were implanted subcutaneously (sc) into the upper right flank of naive Balb/c mice.
For Study 8020 Colon 26-XEF, animals were randomized and enrolled onto the study when tumor volumes reached a range of 27-60 mm^3 on day 10 post cell implantation. All treatments were initiated three days later on day 13. For the PD studies, animals were randomized when the mean tumor volume reached 100˜120 mm^3.
The designs of studies 7628 Colon 26-XPD, 8063 Colon 26-XPD and 8020 Colon 26-XEF including dose and schedule for treatment groups are summarized in Tables Ex3.2 to Ex3.4. Animals were weighed on dosing day(s) and the dosing volume was adjusted to body weight to 10 ml/kg. Tumor dimensions and body weights were recorded at the time of randomization and twice weekly thereafter for the study duration. The following data were collected after each day of data collection: incidence of mortality, individual and group average body weights, and individual and group average tumor volume.
Percent treatment/control (% T/C) and percent regression (% Reg) values were calculated using the following formulas, respectively:
% Reg=100×ΔT/Tinitial if ΔT<0 […]
A Kaplan-Meier survival analysis was performed to compare differences in time to endpoint (TTE). Mice were scored as achieving tumor endpoint once tumor volume exceeded 1000 mm^3 and scored as dead (“1”). […]
The anti-tumor activity of HDM201 with aPD1 antibody targeting the PD-1/PD-L1 axis was explored in the Colon 26 murine syngeneic model (8020 Colon 26-XEF). […] Tumor growth delay was assessed as median time to endpoint using the Kaplan-Meier analysis (GraphPad v7.0).

COc1ncc(-c2nc3c(n2C(C)C)[C@H](c2ccc(Cl)cc2)N(c2cc(Cl)cn(C)c2=O)C3=O)c(OC)n1 [HDM201, (S)-5-(5-Chloro-1-methyl-2-oxo-1,2-dihydro-pyridin-3-yl)-6-(4-chloro-phenyl)-2-(2,4-dimethoxy-pyrimidin-5-yl)-1-isopropyl-5,6-dihydro-1H-pyrrolo[3,4-d]imidazol-4-one]
animals with partial response (10 mice per group): 1/10
complete tumor regression / complete responses (CR), animals (10 mice per group, HDM201 40 mg/kg 3×q3h po weekly, aPD1 Ab 5 mg/kg ip): no CR
tumor growth (HDM201 40 mg/kg): inhibited tumor growth
median time to endpoint (TV≥1000 mm^3), Kaplan-Meier (HDM201 40 mg/kg 3×q3h po weekly, aPD1 Ab 5 mg/kg ip, vehicle 23 days): 31.5 days
